From PubChem BioAssay (NCI)
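Interpolation was linear, between the two tested concentrations surrounding the appropriate level; five concentrations were tested over 48 hours in 96-well plates. TGI: total growth inhibition.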

Assays:
Test in all cases: inhibition of tumour cell growth, NCI panel, 48 h
786-0 renal = system: 786-0 renal
A549 NSCLC = system: A549 NSCLC
ACHN renal = system: ACHN renal
BT-549 breast = system: BT-549 breast
CAKI-1 renal = system: CAKI-1 renal
CCRF-CEM leukemia = system: CCRF-CEM leukemia
COLO 205 colon = system: COLO 205 colon
DU-145 prostate = system: DU-145 prostate
EKVX NSCLC = system: EKVX NSCLC
HCC-2998 colon = system: HCC-2998 colon
HCT-116 colon = system: HCT-116 colon
HCT-15 colon = system: HCT-15 colon
HOP-62 NSCLC = system: HOP-62 NSCLC
HT29 colon = system: HT29 colon
IGROV1 ovarian = system: IGROV1 ovarian
K-562 leukemia = system: K-562 leukemia
KM12 colon = system: KM12 colon
LOX IMVI melanoma = system: LOX IMVI melanoma
M14 melanoma = system: M14 melanoma
MALME-3M melanoma = system: MALME-3M melanoma
MCF7 breast = system: MCF7 breast
MDA-MB-231 breast = system: MDA-MB-231 breast
MDA-MB-435 = system: MDA-MB-435
MDA-N = system: MDA-N
MOLT-4 leukemia = system: MOLT-4 leukemia
NCI-H226 lung = system: NCI-H226 lung
NCI-H23 lung = system: NCI-H23 lung
NCI-H460 lung = system: NCI-H460 lung
NCI-H522 lung = system: NCI-H522 lung
NCI/ADR-RES ovarian = system: NCI/ADR-RES ovarian
OVCAR-3 ovarian = system: OVCAR-3 ovarian
OVCAR-4 ovarian = system: OVCAR-4 ovarian
OVCAR-5 ovarian = system: OVCAR-5 ovarian
OVCAR-8 ovarian = system: OVCAR-8 ovarian
PC-3 prostate = system: PC-3 prostate
RPMI-8226 leukemia = system: RPMI-8226 leukemia
RXF 393 renal = system: RXF 393 renal
SF-268 CNS = system: SF-268 CNS
SF-295 CNS = system: SF-295 CNS
SF-539 CNS = system: SF-539 CNS
SK-MEL-2 melanoma = system: SK-MEL-2 melanoma
SK-MEL-28 melanoma = system: SK-MEL-28 melanoma
SK-MEL-5 melanoma = system: SK-MEL-5 melanoma
SK-OV-3 ovarian = system: SK-OV-3 ovarian
SN12C renal = system: SN12C renal
SNB-19 CNS = system: SNB-19 CNS
SNB-75 CNS = system: SNB-75 CNS
SR leukemia = system: SR leukemia
SW-620 colon = system: SW-620 colon
TK-10 renal = system: TK-10 renal
U251 CNS = system: U251 CNS
UACC-257 melanoma = system: UACC-257 melanoma
UACC-62 melanoma = system: UACC-62 melanoma
UO-31 renal = system: UO-31 renal
A498 renal = system: A498 renal
HL-60(TB) leukemia = system: HL-60(TB) leukemia
T-47D breast = system: T-47D breast

CCOC(=O)C12C3CCC1C2C(=O)C3 (stereo not drawn) was tested. Which TGI (786-0 renal) did it give?
Its TGI is greater than 100 µM.

What about the TGI (A549 NSCLC) of the same compound?
Its TGI is greater than 100 µM.

What about the TGI (ACHN renal) of the same compound?
Its TGI is greater than 100 µM.

And the TGI (BT-549 breast)?
Its TGI is greater than 100 µM.

And the TGI (CAKI-1 renal)?
Its TGI is greater than 100 µM.

What about the TGI (CCRF-CEM leukemia) of the same compound?
The TGI was greater than 100 µM.

And the TGI (COLO 205 colon)?
Its TGI is greater than 100 µM.

What about the TGI (DU-145 prostate) of the same compound?
Its TGI is greater than 100 µM.

What about the TGI (EKVX NSCLC) of the same compound?
The TGI was greater than 100 µM.

What about the TGI (HCC-2998 colon) of the same compound?
The TGI was greater than 100 µM.

And the TGI (HCT-116 colon)?
The TGI was greater than 100 µM.

What about the TGI (HCT-15 colon) of the same compound?
Its TGI is greater than 100 µM.

What about the TGI (HOP-62 NSCLC) of the same compound?
The TGI was greater than 100 µM.

And the TGI (HT29 colon)?
Its TGI is greater than 100 µM.

And the TGI (IGROV1 ovarian)?
Its TGI is greater than 100 µM.

What about the TGI (K-562 leukemia) of the same compound?
Its TGI is greater than 100 µM.

What about the TGI (KM12 colon) of the same compound?
Its TGI is greater than 100 µM.

What about the TGI (LOX IMVI melanoma) of the same compound?
Its TGI is greater than 100 µM.

What about the TGI (M14 melanoma) of the same compound?
The TGI was greater than 100 µM.

What about the TGI (MALME-3M melanoma) of the same compound?
The TGI was greater than 100 µM.

And the TGI (MCF7 breast)?
The TGI was greater than 100 µM.

What about the TGI (MDA-MB-231 breast) of the same compound?
Its TGI is greater than 100 µM.

And the TGI (MDA-MB-435)?
Its TGI is greater than 100 µM.

And the TGI (MDA-N)?
Its TGI is greater than 100 µM.

What about the TGI (MOLT-4 leukemia) of the same compound?
The TGI was greater than 100 µM.

What about the TGI (NCI-H226 lung) of the same compound?
The TGI was greater than 100 µM.

And the TGI (NCI-H23 lung)?
Its TGI is greater than 100 µM.

And the TGI (NCI-H460 lung)?
Its TGI is greater than 100 µM.

And the TGI (NCI-H522 lung)?
Its TGI is greater than 100 µM.

What about the TGI (NCI/ADR-RES ovarian) of the same compound?
The TGI was greater than 100 µM.

And the TGI (OVCAR-3 ovarian)?
The TGI was greater than 100 µM.

And the TGI (OVCAR-4 ovarian)?
The TGI was greater than 100 µM.

What about the TGI (OVCAR-5 ovarian) of the same compound?
The TGI was greater than 100 µM.

And the TGI (OVCAR-8 ovarian)?
Its TGI is greater than 100 µM.

And the TGI (PC-3 prostate)?
The TGI was greater than 100 µM.

And the TGI (RPMI-8226 leukemia)?
Its TGI is greater than 100 µM.

What about the TGI (RXF 393 renal) of the same compound?
Its TGI is greater than 100 µM.

What about the TGI (SF-268 CNS) of the same compound?
Its TGI is greater than 100 µM.

What about the TGI (SF-295 CNS) of the same compound?
Its TGI is greater than 100 µM.

What about the TGI (SF-539 CNS) of the same compound?
Its TGI is greater than 100 µM.

And the TGI (SK-MEL-2 melanoma)?
Its TGI is greater than 100 µM.

What about the TGI (SK-MEL-28 melanoma) of the same compound?
Its TGI is greater than 100 µM.

What about the TGI (SK-MEL-5 melanoma) of the same compound?
Its TGI is greater than 100 µM.

And the TGI (SK-OV-3 ovarian)?
Its TGI is greater than 100 µM.

And the TGI (SN12C renal)?
Its TGI is greater than 100 µM.

What about the TGI (SNB-19 CNS) of the same compound?
Its TGI is greater than 100 µM.

And the TGI (SNB-75 CNS)?
Its TGI is greater than 100 µM.

And the TGI (SR leukemia)?
Its TGI is greater than 100 µM.

And the TGI (SW-620 colon)?
The TGI was greater than 100 µM.

What about the TGI (TK-10 renal) of the same compound?
Its TGI is greater than 100 µM.

And the TGI (U251 CNS)?
The TGI was greater than 100 µM.

What about the TGI (UACC-257 melanoma) of the same compound?
The TGI was greater than 100 µM.

What about the TGI (UACC-62 melanoma) of the same compound?
Its TGI is greater than 100 µM.

What about the TGI (UO-31 renal) of the same compound?
The TGI was greater than 100 µM.

Which results are given for CCC(C)C1=C(O)[N+]2([O-])Oc3ccc(-c4c(O)c(O)c(-c5ccc(O)cc5)c(OC(C)=O)c4OC(C)=O)cc3OC2(C(C)CC)C(=O)N1O (stereo not drawn)?
TGI (786-0 renal): > 50 µM; TGI (A498 renal): > 50 µM; TGI (A549 NSCLC): > 50 µM; TGI (ACHN renal): > 50 µM; TGI (CAKI-1 renal): > 50 µM; TGI (CCRF-CEM leukemia): 9.65 µM; TGI (COLO 205 colon): > 50 µM; TGI (DU-145 prostate): > 50 µM; TGI (EKVX NSCLC): > 50 µM; TGI (HCT-116 colon): > 50 µM; TGI (HCT-15 colon): > 50 µM; TGI (HL-60(TB) leukemia): > 50 µM; TGI (HT29 colon): > 50 µM; TGI (IGROV1 ovarian): > 50 µM; TGI (K-562 leukemia): > 50 µM; TGI (KM12 colon): > 50 µM; TGI (LOX IMVI melanoma): > 50 µM; TGI (M14 melanoma): > 50 µM; TGI (MALME-3M melanoma): > 50 µM; TGI (MCF7 breast): > 50 µM; TGI (MDA-MB-231 breast): > 50 µM; TGI (MDA-MB-435): > 50 µM; TGI (MDA-N): > 50 µM; TGI (MOLT-4 leukemia): > 50 µM; TGI (NCI-H226 lung): > 50 µM; TGI (NCI-H23 lung): > 50 µM; TGI (NCI-H460 lung): > 50 µM; TGI (NCI-H522 lung): > 50 µM; TGI (NCI/ADR-RES ovarian): > 50 µM; TGI (OVCAR-3 ovarian): > 50 µM; TGI (OVCAR-4 ovarian): > 50 µM; TGI (OVCAR-5 ovarian): > 50 µM; TGI (OVCAR-8 ovarian): > 50 µM; TGI (PC-3 prostate): > 50 µM; TGI (RPMI-8226 leukemia): > 50 µM; TGI (RXF 393 renal): > 50 µM; TGI (SF-268 CNS): > 50 µM; TGI (SF-295 CNS): > 50 µM; TGI (SF-539 CNS): > 50 µM; TGI (SK-MEL-2 melanoma): > 50 µM; TGI (SK-MEL-28 melanoma): > 50 µM; TGI (SK-MEL-5 melanoma): > 50 µM; TGI (SK-OV-3 ovarian): > 50 µM; TGI (SN12C renal): > 50 µM; TGI (SNB-19 CNS): > 50 µM; TGI (SNB-75 CNS): > 50 µM; TGI (SR leukemia): > 50 µM; TGI (SW-620 colon): > 50 µM; TGI (T-47D breast): > 50 µM; TGI (TK-10 renal): > 50 µM; TGI (U251 CNS): > 50 µM; TGI (UACC-257 melanoma): > 50 µM; TGI (UACC-62 melanoma): > 50 µM; TGI (UO-31 renal): > 50 µM
